In patent publication US20240226098A1, “COMPOUNDS AND METHODS FOR MODULATING SPLICING” (REMIX THERAPEUTICS INC., priority 2020, published 2024):

Experiments:
Assay type in all cases: cell-based
[1] = tested on: HTT mRNA, canonical junction (CJ); test: Splicing assay (RT-qPCR): decrease in HTT canonical junction (CJ) mRNA; settings: A673 or K562 cell line, 24 hours treatment, top dose 10 uM; concentration having 50% response in CJ decrease
Experimental: (§1) Compounds described herein were used to modulate RNA transcript abundance in cells. The expression of a target mRNA was measured by detecting the formation of an exon-exon junction in the canonical transcript (CJ). A compound mediated exon-inclusion event was detected by observing an increase in formation of a new junction with an alternative exon (AJ). Real-time qPCR assays were used to detect these splicing switches and interrogate the potency of various compounds towards different target genes. A high-throughput real time quantitative PCR (RT-qPCR) assay was developed to measure these two isoforms of the mRNA (CJ and AJ) for an exemplary gene, HTT, together with a control housekeeping gene, GAPDH or GUSB or PPIA, used for normalization. Briefly, the A673 or K562 cell line was treated with various compounds described herein (e.g., compounds of Formula (I)). After treatment, the levels of the HTT mRNA targets were determined from each sample of cell lysate by cDNA synthesis followed by qPCR.
(§2) • Cells-to-CT 1-step kit: ThermoFisher A25602, Cells-to-CT lysis reagent: ThermoFisher 4391851C, TaqMan™ Fast Virus 1-Step Master Mix: ThermoFisher 4444436 • GAPDH: VIC-PL, ThermoFisher 4326317E (Assay: Hs99999905_ml)—used for K562/suspension cell lines • GUSB: VIC-PL, ThermoFisher 4326320E (Assay: Hs99999908_ml)—used for K562/suspension cell lines • PPIA: VIC-PL, ThermoFisher 4326316E (Assay: Hs99999904_ml)—used for A673/adherent cell lines
(§3) The A673 cell line was cultured in DMEM with 10% FBS. Cells were diluted with full growth media and plated in a 96-well plate (15,000 cells in 100 ul media per well). The plate was incubated at 37° C. with 5% CO2 for 24 hours to allow cells to adhere. An 11-point 3-fold serial dilution of the compounds was made in DMSO then diluted in media in an intermediate plate. Compounds were transferred from the intermediate plate to the cell plate with the top dose at a final concentration of 10 uM in the well. Final DMSO concentration was kept at or below 0.25%. The cell plate was returned to the incubator at 37° C. with 5% CO2 for an additional 24 hours.
(§4) The K562 cell line was cultured in IMDM with 10% FBS. For K562, cells were diluted with full growth media and plated in either a 96-well plate (50,000 cells in 50 uL media per well) or a 384-well plate (8,000-40,000 cells in 45 uL media per well). An 11-point 3-fold serial dilution of the compounds were made in DMSO then diluted in media in an intermediate plate. Compound was transferred from the intermediate plate to the cell plate with the top dose at a final concentration of 10 uM in the well. Final DMSO concentration was kept at or below 0.25%. Final volume was 100 uL for 96-well plate and 50 uL for 384-well plate. The cell plate was then placed in an incubator at 37° C. with 5% CO2 for 24 hours.
(§5) The cells were then gently washed with 50 uL-100 uL cold PBS before proceeding to addition of lysis buffer. 30 uL-50 uL of room temperature lysis buffer with DNAse I (and optionally RNAsin) was added to each well. Cells were shaken/mixed thoroughly at room temperature for 5-10 minutes for lysis to take place and then 3 uL-5 uL of room temperature stop solution was added and wells were shaken/mixed again. After 2-5 minutes, the cell lysate plate was transferred to ice for RT-qPCR reaction setup. The lysates could also be frozen at −80° C. for later use.
(§6) In some cases, a direct lysis buffer was used. An appropriate volume of 3× lysis buffer (10 mM Tris, 150 mM NaCl, 1.5%-2.5% Igepal and 0.1-1 U/uL RNAsin, pH 7.4) was directly added to either K562 or A673 cells in media and mixed by pipetting 3 times. The plates were then incubated at room temperature with shaking/rocking for 20-50 minutes to allow for lysis to take place. After this time, the cell lysate plate was transferred to ice to set up for the RT-qPCR reactions. The lysates could also be frozen at −80° C. for later use. […]

[2] = tested on: HTT CJ mRNA; test: Gene panel canonical junction qPCR assay: decrease in HTT CJ mRNA; settings: protocol as for Table 2, read-out: HTT (IC50, decrease in CJ mRNA levels)
Experimental: as §1, §3, §4, §5
(§7) In some cases, a direct lysis buffer was used. An appropriate volume of 3× lysis buffer (10 mM Tris, 150 mM NaCl, 1.5%-2.5% Igepal and 0.1-1 U/uL RNAsin, pH 7.4) was directly added to either K562 or A673 cells in media and mixed by pipetting 3 times. The plates were then incubated at room temperature with shaking/rocking for 20-50 minutes to allow for lysis to take place. After this time, the cell lysate plate was transferred to ice to set up for the RT-qPCR reactions. The lysates could also be frozen at −80° C. for later use.
(§8) To set up 10 uL RT-qPCR reactions, cell lysates were transferred to 384-well qPCR plates containing the master mix according to the table below. The plates were sealed, gently vortexed, and spun down before the run. The volumes were adjusted accordingly in some instances where the reaction was carried in 20 uL. The table below summarizes the components of the RT-qPCR reactions:
(§9) The RT-qPCR reaction was performed using a QuantStudio (ThermoFisher) under the following fast cycling conditions. […]

[3] = tested on: HTT mRNA, alternative junction (AJ); test: Splicing assay (RT-qPCR): increase in HTT alternative junction (AJ) mRNA; settings: A673 or K562 cell line, 24 hours treatment, top dose 10 uM; concentration having 50% response in AJ increase
Experimental: as §1, §2, §3, §4, §5, §6

[4] = tested on: SMN2 CJ mRNA; test: Gene panel canonical junction qPCR assay: decrease in SMN2 CJ mRNA; settings: protocol as for Table 2, read-out: SMN2 (IC50, decrease in CJ mRNA levels)
Experimental: as §1, §3, §4, §5, §7, §8, §9

[5] = tested on: Target C CJ mRNA; test: Gene panel canonical junction qPCR assay: decrease in Target C CJ mRNA; settings: protocol as for Table 2, read-out: Target C (IC50, decrease in CJ mRNA levels)
Experimental: as §1, §3, §4, §5, §7, §8, §9

SMILES	AC50 [1]	IC50 [2]	AC50 [3]	IC50 [4]	IC50 [5]
Cc1nc2c(F)cc(NC(=O)c3ccc(N4CCNCC4)c4ccnnc34)cc2s1 [Compound 118, N-(4-fluoro-2-methyl-1,3-benzothiazol-6-yl)-5-(piperazin-1-yl) cinnoline-8-carboxamide]	0.1 to 1 µM	0.1 to 1 µM	0.1 to 1 µM	< 0.1 µM	0.1 to 1 µM
Cc1cn2cc(NC(=O)c3ccc(N4CCNCC4)c4ccnnc34)ncc2n1 [Compound 120, N-[2-methylimidazo[1,2-a]pyrazin-6-yl]-5-(piperazin-1-yl) cinnoline-8-carboxamide]	> 10 µM	> 10 µM	> 10 µM	< 0.1 µM	> 10 µM
Cc1cn2nc(NC(=O)c3ccc(C4CCNCC4)c4ccnnc34)cc(C)c2n1 [Compound 113, N-[2,8-dimethylimidazo[1,2-b]pyridazin-6-yl]-5-(piperidin-4-yl) cinnoline-8-carboxamide]	1 to 10 µM	1 to 10 µM	1 to 10 µM	0.1 to 1 µM	1 to 10 µM
Cc1cn2cc(NC(=O)c3ccc(N4CCNCC4)c4cncnc34)cc(F)c2n1 [Compound 112, N-[8-fluoro-2-methylimidazo[1,2-a]pyridin-6-yl]-5-(piperazin-1-yl)quinazoline-8-carboxamide]	1 to 10 µM	1 to 10 µM	1 to 10 µM	< 0.1 µM	0.1 to 1 µM
Cc1cn2cc(NC(=O)c3ccc(N4CCNC(C)C4)c4ccnnc34)cc(F)c2n1 (stereo in doubt) [Compound 147, N-[8-fluoro-2-methylimidazo[1,2-a]pyridin-6-yl]-5-[(3R)-3-methylpiperazin-1-yl]cinnoline-8-carboxamide]	1 to 10 µM	1 to 10 µM	1 to 10 µM	< 0.1 µM	1 to 10 µM
Cc1cn2cc(NC(=O)c3ccc(N4C[C@H]5C[C@@H]4C5N(C)C)c4ccnnc34)cc(F)c2n1 (stereo partly drawn) [Compound 148, 5-[(1R,4R)-5-(dimethylamino)-2-azabicyclo [2.1.1]hexan-2-yl]-N-[8-fluoro-2-methylimidazo[1,2-a]pyridin-6-yl] cinnoline-8-carboxamide]	1 to 10 µM	1 to 10 µM	1 to 10 µM	1 to 10 µM	1 to 10 µM
CCC1CN(c2ccc(C(=O)Nc3cc(F)c4nc(C)cn4c3)c3nnccc23)CCN1 (stereo in doubt) [Compound 151, 5-[(3S)-3-ethylpiperazin-1-yl]-N-[8-fluoro-2-methylimidazo[1,2-a]pyridin-6-yl]cinnoline-8-carboxamide]	1 to 10 µM	1 to 10 µM	1 to 10 µM	< 0.1 µM	> 10 µM
Cc1cn2cc(NC(=O)c3ccc(N4CCC(NC(C)(C)C)CC4)c4ccnnc34)cc(F)c2n1 [Compound 138, 5-[4-(tert-butylamino)piperidin-1-yl]-N-[8-fluoro-2-methylimidazo[1,2-a]pyridin-6-yl]cinnoline-8-carboxamide]	1 to 10 µM	1 to 10 µM	1 to 10 µM	< 0.1 µM	1 to 10 µM
Cn1cc2ccc(NC(=O)c3ccc(N4CCNCC4)c4ccnnc34)cc2n1 [Compound 115, N-(2-methylindazol-6-yl)-5-(piperazin-1-yl) cinnoline-8-carboxamide]	> 10 µM	> 10 µM	> 10 µM	> 10 µM	> 10 µM
Cc1cn2cc(NC(=O)c3ccc(N4CCN(C)C(C)C4)c4ccnnc34)cc(F)c2n1 (stereo in doubt) [Compound 150, 5-[(3R)-3,4-dimethylpiperazin-1-yl]-N-[8-fluoro-2-methylimidazo[1,2-a]pyridin-6-yl]cinnoline-8-carboxamide]	1 to 10 µM	1 to 10 µM	1 to 10 µM	< 0.1 µM	1 to 10 µM
Cc1cn2cc(NC(=O)c3ccc(N4CCNC(C)C4)c4nccnc34)cc(F)c2n1 (stereo not shown) [Compound 157, N-[8-fluoro-2-methylimidazo[1,2-a]pyridin-6-yl]-8-(3-methylpiperazin-1-yl)quinoxaline-5-carboxamide]	0.1 to 1 µM	0.1 to 1 µM	0.1 to 1 µM	< 0.1 µM	1 to 10 µM
Cc1cn2nc(NC(=O)c3ccc(N4CCNCC4)c4ccnnc34)nc2c(C)n1 [Compound 122]	1 to 10 µM	1 to 10 µM	1 to 10 µM	1 to 10 µM	1 to 10 µM
Cc1cn2cc(NC(=O)c3ccc(N4CCNCC4)c4ccnnc34)cc(F)c2n1 [Compound 101, N-[8-fluoro-2-methylimidazo[1,2-a]pyridin-6-yl]-5-(piperazin-1-yl) cinnoline-8-carboxamide]	0.1 to 1 µM	0.1 to 1 µM	0.1 to 1 µM	< 0.1 µM	1 to 10 µM
Cc1cn2cc(NC(=O)c3ccc(N4CCNCC4)c4nccnc34)cc(F)c2n1 [Compound 111, N-[8-fluoro-2-methylimidazo[1,2-a]pyridin-6-yl]-8-(piperazin-1-yl) quinoxaline-5-carboxamide]	1 to 10 µM	1 to 10 µM	1 to 10 µM	< 0.1 µM	0.1 to 1 µM
O=C(Nc1cn[nH]c1)c1ccc(N2CCNCC2)c2ccnnc12 [Compound 126, 5-(piperazin-1-yl)-N-(1H-pyrazol-4-yl)cinnoline-8-carboxamide]	> 10 µM	> 10 µM	> 10 µM	> 10 µM	> 10 µM
Cc1cn2cc(NC(=O)c3ccc(N4CCN5CCCC5C4)c4ccnnc34)cc(F)c2n1 (stereo in doubt) [Compound 153, 5-[(8aS)-hexahydro-1H-pyrrolo[1,2-a]pyrazin-2-yl]-N-[8-fluoro-2-methylimidazo[1,2-a]pyridin-6-yl]cinnoline-8-carboxamide]	0.1 to 1 µM	0.1 to 1 µM	0.1 to 1 µM	< 0.1 µM	1 to 10 µM
Cc1cn2cc(NC(=O)c3ccc(N4CCN(C)CC4)c4ccnnc34)cc(F)c2n1 [Compound 127, N-[8-fluoro-2-methylimidazo[1,2-a]pyridin-6-yl]-5-(4-methylpiperazin-1-yl) cinnoline-8-carboxamide]	1 to 10 µM	1 to 10 µM	1 to 10 µM	< 0.1 µM	1 to 10 µM
